# Read-outs that look alike come from different tables or passages of the source.
# Key:
# MDA-MB-468 cells [1] = experiment: Dose-matrix combination assay (synergy score, Loewe model); type: cell-based
# Method: (§1) Dose-matrix combination assays were performed as described above, but performed in opague 384-well plates (2k viable cells/well). Compounds were added using Tecan D300e liquid. Protein solutions were supplemented with 0.3% Tween-20 (final) and diluted to 1 μM. All wells were normalized to the maximum amount of DMSO (maximum 0.4%) or Tween-20 added. […] Luminescence values were normalized to luminescence of non-treated cells and dose-response was fitted using Smart Fit. Synergy scores were calculated using LOEWE synergy model.
# (§2) The screening of synergistic drug combinations can be accomplished by performing a dose-matrix assay. Therefore, two drugs are serial diluted and mixed at every dose level, yielding a dose-matrix. The drug combination can be additive if the effects of the combination are identical to the added effects of the single agents. However, the effects of the combination might also be stronger than the activity of the single agents. This scenario is termed synergy, whereas weaker combination effects compared to the single agents are termed antagonism. A dose-matrix assay is depicted schematically in FIG. 2 which illustrates the outcomes of a dose-matrix assay: additivity, antagonism and synergy.
# (§3) The screening was conducted by serial diluting the duocarmycin derivative DUBA (10) and the DDR inhibitors. […] DUBA was combined in a dose-matrix assay with hycanthone. The cell viability was measured after 6 d of treatment using the CellTiter-Glo assay kit. The signals of the cell viability assay were normalized to untreated cells and fitted. […] By subtracting the modeled data from the fitted data, an excess matrix was generated. The excess matrix can be considered as a visualization of the differences between model and actual data which also highlights spots of either high synergy or antagonism. The quantification of the combination effects, however, was performed by calculating synergy scores. […] Besides synergy score, the potency of the drugs in monotherapy was obtained from these experiments. […] The potency was obtained from this dose-response curve.
# (§4) The scattering of S was determined in a sham control experiment to define a cutoff for classifying a combination as truly synergistic or antagonistic. Thus seven different compounds were combined with itself on four different cell lines and the three-σ confidence interval was calculated around the mean of the measurement. […] For the sake of convenience, the cutoff was set to a value of ±1.
# (§5) Synergy scores (S) were obtained from the combination experiments that indicated additivity […] if model and actual response were equal. […] The magnitude of the score determined the extent of the combination effects.
# HCC-1954 cells [2] = experiment: as above; type: cell-based; conditions: HCC-1954, 6 d
# Method: as §1, §2, §3, §4, §5
# NEK1 = biological target: T1, NEK1 (Homo sapiens, UniProt Q96PY6); conditions: cited from earlier work
# T1 sequence (Q96PY6 1-1258): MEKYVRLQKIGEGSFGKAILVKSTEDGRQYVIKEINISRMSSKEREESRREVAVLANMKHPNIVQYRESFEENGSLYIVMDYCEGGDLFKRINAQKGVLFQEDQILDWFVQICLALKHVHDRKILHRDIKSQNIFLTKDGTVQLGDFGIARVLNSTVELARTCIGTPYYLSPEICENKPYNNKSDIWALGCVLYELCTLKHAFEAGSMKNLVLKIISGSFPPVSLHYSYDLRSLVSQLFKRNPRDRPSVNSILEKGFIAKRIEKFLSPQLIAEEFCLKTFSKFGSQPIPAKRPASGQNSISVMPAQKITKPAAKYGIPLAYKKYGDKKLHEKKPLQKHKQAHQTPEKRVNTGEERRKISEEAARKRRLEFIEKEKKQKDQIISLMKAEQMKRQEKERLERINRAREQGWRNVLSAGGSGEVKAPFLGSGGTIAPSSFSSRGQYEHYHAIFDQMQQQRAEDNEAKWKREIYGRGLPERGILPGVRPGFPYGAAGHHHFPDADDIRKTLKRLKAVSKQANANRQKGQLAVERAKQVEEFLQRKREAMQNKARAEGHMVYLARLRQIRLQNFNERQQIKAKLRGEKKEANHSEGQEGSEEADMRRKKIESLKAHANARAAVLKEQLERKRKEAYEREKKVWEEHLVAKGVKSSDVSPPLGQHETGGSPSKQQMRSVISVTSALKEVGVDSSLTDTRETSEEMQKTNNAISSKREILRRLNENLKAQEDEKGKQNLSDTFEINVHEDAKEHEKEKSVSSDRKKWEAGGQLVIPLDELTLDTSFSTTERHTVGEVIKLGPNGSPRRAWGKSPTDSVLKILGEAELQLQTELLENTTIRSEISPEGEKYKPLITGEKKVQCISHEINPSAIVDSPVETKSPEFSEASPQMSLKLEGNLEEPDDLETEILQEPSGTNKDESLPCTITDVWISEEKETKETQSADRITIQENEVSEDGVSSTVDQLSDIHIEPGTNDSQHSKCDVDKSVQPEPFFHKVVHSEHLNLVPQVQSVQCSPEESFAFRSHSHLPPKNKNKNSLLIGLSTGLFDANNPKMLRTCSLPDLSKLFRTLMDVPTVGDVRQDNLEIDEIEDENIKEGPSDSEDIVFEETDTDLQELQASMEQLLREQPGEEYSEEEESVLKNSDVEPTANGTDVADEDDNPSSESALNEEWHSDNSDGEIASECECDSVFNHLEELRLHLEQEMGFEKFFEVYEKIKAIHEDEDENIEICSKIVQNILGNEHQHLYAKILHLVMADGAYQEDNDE
# MDA-MB-453 cells [3] = experiment: Cytotoxicity (cell viability, CellTiter-Glo, 6 d); type: cell-based
# Method: as §1
# NCI-N87 cells [4] = experiment: Cytotoxicity (cell viability, CellTiter-Glo, 6 d); type: cell-based; conditions: Homo sapiens; NCI-N87, agent alone, 384-well format (footnote a)
# Method: as §1
# JIMT-1 cells = experiment: Cytotoxicity (cell viability, CellTiter-Glo, 6 d); type: cell-based; conditions: JIMT-1, agent alone, 384-well format (footnote a)
# Method: Evaluation was performed using GraphPad Prism version 6.05.
# (§6) Dose-matrix combination assays were performed as described above, but performed in opague 384-well plates (2k viable cells/well). Compounds were added using Tecan D300e liquid. Protein solutions were supplemented with 0.3% Tween-20 (final) and diluted to 1 μM. All wells were normalized to the maximum amount of DMSO (maximum 0.4%) or Tween-20 added. Read out of luminescence was performed on Envision 2104 Multilabel Reader (Perkin Elmer) and data were evaluated using Genedata Screener® version 14.0.6-Standard (Genedata AG). Luminescence values were normalized to luminescence of non-treated cells and dose-response was fitted using Smart Fit. Synergy scores were calculated using LOEWE synergy model.
# MDA-MB-453 cells [5] = experiment: Dose-matrix combination assay (synergy score, Loewe model); type: cell-based; conditions: combination with AZD6738; MDA-MB-453
# Method: as §6, §2
# NCI-N87 cells [6] = experiment: as above; type: cell-based; conditions: combination with AZD6738; NCI-N87
# Method: as §6, §2
# MDA-MB-468 cells [7] = experiment: Cytotoxicity (cell viability, CellTiter-Glo, 6 d); type: cell-based
# HCC-1954 cells [8] = experiment: Cytotoxicity (cell viability, CellTiter-Glo, 6 d); type: cell-based; conditions: Homo sapiens
# Method: as §1
# After 6 d of treatment, CellTiter-Glo luminescent assay was performed and the luminescence was read on Envision Reader. The results were analyzed using GeneData Screener as described before.
# [9] = system: HCC-1954 cells treated with ATR, CHK1 or non-targeting siRNA; experiment: Cytotoxicity of duocarmycins on siRNA knock-down cells; type: cell-based; conditions: 6 d
# Method: 0.7*10^6 viable cells were seeded in a T25 flask, 5 mL of medium were added and the cells were incubated at 37° C. and 5% C02 overnight. The transfection was carried out as follows: 2.5 μL Lipofectamine RNAiMAX were diluted with 247.5 μL OptiMEM and a 0.3 μM siRNA (ATR, CHK1 or non-targeting siRNA) solution was prepared in OptiMEM to yield 250 μL final volume. The solutions were mixed and incubated for 20 min at room temperature, followed by the addition of 500 μL cell culture medium. The cell culture medium was removed from the cells, washed with PBS (3×) and the transfection mix was added to the cells. After 4 h incubation at 37° C. and 5% CO2, the transfection mix was removed in vacuo. The cells were washed with medium (3×), 5 mL medium were added and the cells were incubated for 60 h at 37° C. and 5% CO2. Then cells were detached, and seeded into 384-well plates. Then a cytotoxicity assay was performed as described before, but with one compound only
# Therefore, HCC-1954 cells were seeded into T25 flasks and left to adhere overnight. Then the cells were washed with PBS, and subsequently ATR, CHK1 and non-targeting siRNA were added. The cells were incubated for 4 h, washed with medium and incubated for 3 d. Cells were detached and seeded into 384-well plates. They were treated with duocarmycins for 6 d. Cell viability was determined via CellTiter-Glo assay kit, and data were evaluated using GraphPad Prism. The knock-down efficiency was evaluated using quantitative PCR.
# A549 cells [10] = experiment: Dose-matrix combination assay (synergy score, Loewe model); type: cell-based; conditions: combination with AZD6738; A549 (EGFR-positive), 6 d
# Method: as §6, §2
# MCF7 cells = experiment: Cytotoxicity (cell viability); type: cell-based; conditions: MCF7 (EGFR −, MET −), Table 10
# Method: (§7) Curve-shift assays were conducted as follows: The cell number and viability was determined using ViCell™-XR (Beckman Coulter) and seeded in opague 96-well plate (10k viable cells/well). After seeding, the plate was incubated (37° C., 5% C02) in a humid chamber overnight. Compounds were diluted in the appropriate medium, added to the cells and the plate was incubated (37° C., 5% CO2, 6 d) in a humid chamber. After 30 min equilibration at room temperature, CellTiter-Glo reagent (Promega) was added. After the plate was shaken (3 min, 550 rpm, rt) it was incubated (10 min, rt) and luminescence was read on a synergy 4 plate reader (BioTek). Evaluation was performed using GraphPad Prism version 6.05. Therefor luminescence values were normalized to luminescence values of non-treated cells and dose-response was fitted with 4-point logistic fit.
# as §6
# A549 cells [11] = experiment: Cytotoxicity (cell viability); type: cell-based; conditions: A549 (EGFR +, MET +), Table 10
# Method: as §7, §6
# A431 cells = experiment: Cytotoxicity (cell viability); type: cell-based; conditions: A431 (EGFR ++, MET +), Table 10
# Method: as §7, §6
structure (smiles),measurement,setting,value
COc1cc(-c2cnc(N)c(N3CC[C@@H](C(=O)O)[C@@H](C)[C@H]3C)n2)cc(OC)c1OC [Cmpd31],Synergy score S,"MDA-MB-468 cells [1]; combination with DUBA, MDA-MB-468, 6 d, S ± SD, cutoff ±1",0.4±0.2
same,Synergy score S,"HCC-1954 cells [2]; combination with DUBA, S ± SD, cutoff ±1",0.3±0.1
same,potency of NEK1 inhibition,NEK1,170 nM
Cc1cccc2c(O)cc3c(c12)[C@H](CCl)CN3C(=O)c1cn2cc(NC(=O)c3ccc(O)cc3)ccc2n1 [compound 10],Synergy score S,HCC-1954 cells [2]; combination with AZD6738,"6.7 (6.3, 7.2) 6.9 ± 0.7"
same,Synergy score S,"HCC-1954 cells [2]; combination with AZD6738, listed as DUBA",6.9±0.7
same,Synergy score S,"HCC-1954 cells [2]; combination with AZD6738, listed as DUBA (10)",6.9±0.7
same,IC50,"MDA-MB-453 cells [3]; Homo sapiens, MDA-MB-453",0.3 ± 0.1 nM
same,IC50,NCI-N87 cells [4],1.2 ± 0.5 nM
same,IC50,JIMT-1 cells; Homo sapiens,3 ± 2 nM
same,Synergy score S,MDA-MB-453 cells [5],5.0±0.5
same,Synergy score S,NCI-N87 cells [6],3.1+0.6
same,IC50,"MDA-MB-468 cells [7]; Homo sapiens, MDA-MB-468",0.06 ± 0.02 nM
same,IC50,"HCC-1954 cells [8]; HCC1954, HCC-1954, agent alone, 384-well format (footnote a)",0.3 ± 0.07 nM
same,IC50,"HCC-1954 cells [8]; HCC1954, duocarmycin variant alone, HCC-1954, mean ± SD or mean (individual values)",0.2 ± 0.1 nM
same,IC50,"[9]; Homo sapiens, HCC1954, 144 h, ATR knock-down HCC-1954 cells",0.25 nM
CN(C)CCOc1ccc2[nH]c(C(=O)N3C[C@@H](CCl)c4c3cc(O)c3ccccc43)cc2c1 [compound 38],Synergy score S,"MDA-MB-468 cells [1]; combination with AZD6738, MDA-MB-468 (EGFR-positive), 6 d",6.0±1.0
same,Synergy score S,HCC-1954 cells [2]; combination with AZD6738,"5.6 ± 1.7 5.1 (4.8, 5.3)"
same,Synergy score S,"HCC-1954 cells [2]; combination with AZD6738, listed as DDM",5.6+1.7
same,Synergy score S,"HCC-1954 cells [2]; combination with AZD6738, listed as DDM (38)",5.6±1.7
same,IC50,"MDA-MB-453 cells [3]; MDA-MB-453, agent alone, 384-well format (footnote a), read-out: IC50",0.14 nM
same,IC50,JIMT-1 cells,0.14 nM
same,Synergy score S,A549 cells [10],2.0±1.1
same,IC50,"MDA-MB-468 cells [7]; MDA-MB-468 (EGFR +++, MET +), Table 10, read-out: IC50",0.02 ± 0.01 nM
same,IC50,"MDA-MB-468 cells [7]; MDA-MB-468, agent alone, 384-well format (footnote a), read-out: IC50",0.02 ± 0.01 nM
same,IC50,[9]; ATR knock-down HCC-1954 cells,0.014 nM
same,IC50,[9]; CHK1 knock-down HCC-1954 cells,0.133 nM
same,IC50,MCF7 cells,0.164 ± 0.004 nM
same,IC50,A549 cells [11],0.1 ± 0.1 nM
same,IC50,A431 cells,0.055 ± 0.005 nM

# Reference: patent US12616750B2, “Combination therapy utilizing DNA alkylating agents and ATR inhibitors” (Merck Patent GmbH, priority 2018, dated 2026)
